In patent US20130071432A1 (priority 2011, published 2013):

What was measured:
VSV = conditions: mouse, in vivo; cited from earlier work
[1] = molecular target: T1, constitutively active, truncated mutant RNase L(NΔ335) (Homo sapiens, UniProt Q05823); experiment: biochemical
T1 sequence (Q05823 336-741 limits assumed): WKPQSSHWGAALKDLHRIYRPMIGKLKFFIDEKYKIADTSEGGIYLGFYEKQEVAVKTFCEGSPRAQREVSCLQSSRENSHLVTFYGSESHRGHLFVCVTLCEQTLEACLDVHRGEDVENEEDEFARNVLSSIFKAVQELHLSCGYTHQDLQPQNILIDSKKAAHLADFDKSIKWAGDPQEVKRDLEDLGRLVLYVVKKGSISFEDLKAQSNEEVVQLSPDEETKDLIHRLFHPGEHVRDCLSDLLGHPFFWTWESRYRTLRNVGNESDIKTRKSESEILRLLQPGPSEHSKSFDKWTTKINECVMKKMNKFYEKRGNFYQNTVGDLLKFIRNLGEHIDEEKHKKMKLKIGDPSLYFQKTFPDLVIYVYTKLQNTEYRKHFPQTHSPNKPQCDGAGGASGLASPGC

in vitro [2] = conditions: human, mouse, reduction in cell viability
in vitro [3] = conditions: human
[4] = in vivo; cited from earlier work
in vitro [5] = conditions: human; remark: listed apart in the source
[6] = molecular target: T2, full length RNase L activated by 2-5A (Homo sapiens, UniProt Q05823); experiment: biochemical
T2 sequence (Q05823 1-741): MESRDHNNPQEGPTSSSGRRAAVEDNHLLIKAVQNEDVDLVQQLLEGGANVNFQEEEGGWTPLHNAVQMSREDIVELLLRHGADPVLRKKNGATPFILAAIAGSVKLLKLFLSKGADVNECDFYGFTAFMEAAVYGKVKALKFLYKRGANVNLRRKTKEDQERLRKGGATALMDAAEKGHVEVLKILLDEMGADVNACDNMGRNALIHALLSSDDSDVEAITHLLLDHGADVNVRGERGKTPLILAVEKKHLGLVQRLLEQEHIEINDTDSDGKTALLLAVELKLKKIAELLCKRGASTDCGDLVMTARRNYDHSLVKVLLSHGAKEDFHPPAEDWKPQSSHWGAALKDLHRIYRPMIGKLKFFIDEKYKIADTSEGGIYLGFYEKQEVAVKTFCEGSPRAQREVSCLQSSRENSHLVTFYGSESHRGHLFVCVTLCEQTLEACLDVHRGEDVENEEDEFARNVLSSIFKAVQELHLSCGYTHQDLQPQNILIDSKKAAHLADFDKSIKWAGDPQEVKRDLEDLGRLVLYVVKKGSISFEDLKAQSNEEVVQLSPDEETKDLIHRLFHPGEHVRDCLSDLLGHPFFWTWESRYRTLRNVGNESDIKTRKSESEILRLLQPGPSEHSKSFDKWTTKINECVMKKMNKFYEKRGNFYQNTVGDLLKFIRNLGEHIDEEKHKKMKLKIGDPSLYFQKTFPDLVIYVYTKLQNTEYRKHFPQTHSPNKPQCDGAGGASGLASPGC

| Structure (SMILES) | induction of antiviral antibodies against VSV challenge (VSV) | IC50 [1] [µM] | cytotoxicity (in vitro [2]) [%] | cytotoxicity (in vitro [3]) [%] | serum concentrations [4] | cytotoxicity (in vitro [5]) [%] | IC50 [6] [µM] |
| --- | --- | --- | --- | --- | --- | --- | --- |
| O=P1(N(CCCl)CCCl)NCCCO1 (stereo not shown) [CPA, cyclophosphamide] | completely suppressed induction of antiviral antibodies |  |  |  |  |  |  |
| CCN(CC)CCNC(=O)c1c(C)[nH]c(/C=C2\C(=O)Nc3ccc(F)cc32)c1C [sunitinib] |  | 1.4 | ~20 | 60 | equivalent to those of patients | 60 | 1.4 |
